Test results published in a compilation of properties of binary mixtures (doi:10.1039/b704843b).

Test: xn = mol fraction of the nth substance listed
Conditions: 101 kPa

O + CCCC[n+]1ccn(C)c1.F[P-](F)(F)(F)(F)F
x1 = 1
Conditions | viscosity [mPa·s]
298.15 K | 0.894
308.15 K | 0.717
313.15 K | 0.659

CCCC[n+]1ccn(C)c1.F[P-](F)(F)(F)(F)F + O
viscosity [mPa·s]
Conditions | 298.15 K | 303.15 K | 308.15 K | 313.15 K | 318.15 K
x1 = 0.0003 | 0.909 | 0.809 | 0.72 | 0.662 | 0.604
x1 = 0.0006 | 0.917 | 0.815 | 0.725 | 0.667 | 0.609
x1 = 0.001 | 0.923 | 0.822 | 0.73 | 0.672 | 0.614
x1 = 0.0013 | – | 0.83 | 0.737 | 0.678 | 0.62
